Results: US20050165029A1, “Pyrrolopyrimidine derivatives and analogs and their use in the treatment and prevention of diseases” (Ambit Biosciences Corporation, priority 2004, published 2005)

What was measured:
[1] = molecular target: T1, PDGFR-β (Homo sapiens, UniProt P09619); test: PDGFR-β (DKIN) phage-display competitive binding assay
T1 construct: made in house; host or cells: T7 bacteriophage display
Description: (§1) Described in the exemplary assays below is data from binding with varying kinases. […] The term “ND” represents non-determined values.
Kd values for the interactions between PDGFR-β and candidate small molecule ligands were measured by a phage-display-based competitive binding assay that is described in detail in U.S. Ser. No. 10/406,797 filed 2 Apr. 2003 and incorporated herein by reference, Briefly, T7 phage displaying human PDGFR-β were incubated with an affinity matrix coated with known PDGFR-β inhibitor in the presence of various concentrations of the soluble competitor molecules. […] The Kd for the interaction between the soluble competitor molecule and PDGFR-β is equal to the concentration of soluble competitor molecule that causes a 50% reduction in the number of phage recovered in the eluate compared to a control sample lacking soluble competitor. Since this assay is generic, and any molecule can be used as a soluble competitor, we have determined Kd values for the interaction between PDGFR-β and several small molecules, including those shown below.

[2] = molecular target: T2, FLT3 (Homo sapiens, UniProt P36888); test: FLT3(DKIN) phage-display competitive binding assay
T2 construct: made in house; host or cells: T7 bacteriophage display
T2 sequence (P36888 27-993): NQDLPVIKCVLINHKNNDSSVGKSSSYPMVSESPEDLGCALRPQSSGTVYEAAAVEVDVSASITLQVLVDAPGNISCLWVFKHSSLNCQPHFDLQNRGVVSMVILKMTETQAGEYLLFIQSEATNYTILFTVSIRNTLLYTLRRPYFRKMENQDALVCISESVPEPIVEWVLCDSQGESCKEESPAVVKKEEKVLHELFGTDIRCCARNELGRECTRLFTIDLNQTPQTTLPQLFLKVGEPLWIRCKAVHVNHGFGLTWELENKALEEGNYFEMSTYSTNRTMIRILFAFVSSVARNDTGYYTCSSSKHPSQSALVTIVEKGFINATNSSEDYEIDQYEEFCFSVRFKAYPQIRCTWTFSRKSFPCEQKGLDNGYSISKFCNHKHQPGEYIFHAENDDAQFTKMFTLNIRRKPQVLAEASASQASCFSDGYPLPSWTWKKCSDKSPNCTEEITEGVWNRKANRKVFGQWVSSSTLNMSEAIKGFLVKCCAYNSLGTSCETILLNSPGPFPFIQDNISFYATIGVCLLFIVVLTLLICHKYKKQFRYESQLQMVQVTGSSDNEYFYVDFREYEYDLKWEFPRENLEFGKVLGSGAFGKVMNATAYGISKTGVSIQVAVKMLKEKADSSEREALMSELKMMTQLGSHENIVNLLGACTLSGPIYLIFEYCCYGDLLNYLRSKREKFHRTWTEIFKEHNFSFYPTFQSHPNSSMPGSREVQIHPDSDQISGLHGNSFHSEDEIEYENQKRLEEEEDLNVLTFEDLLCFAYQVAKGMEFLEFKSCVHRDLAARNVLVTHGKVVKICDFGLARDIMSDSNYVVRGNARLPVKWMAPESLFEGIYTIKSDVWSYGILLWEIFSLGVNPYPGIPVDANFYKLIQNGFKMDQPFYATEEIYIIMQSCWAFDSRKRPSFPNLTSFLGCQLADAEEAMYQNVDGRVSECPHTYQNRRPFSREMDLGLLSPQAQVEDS
Description: (§2) Methods for measuring binding affinities for interactions between small molecules and kinases including FLT3, c-KIT, ABL(T334I) [a.k.a. ABL(T315I)], VEGFR-2 (a.k.a. KDR), and EGFR are described in detail in U.S. application Ser. No. 10/873,835, which is incorporated by reference herein in its entirety. The components of the assays include human kinases expressed as fusions to T7 bacteriophage particles and immobilized ligands that bind to the ATP site of the kinases. […] If the test compound binds the kinase it competes with the immobilized ligand and prevents binding to the solid support. […] The results are read out by quantitating the amount of fusion protein bound to the solid support, which is accomplished by either traditional phage plaque assays or by quantitative PCR (qPCR) using the phage genome as a template. […] The concentration of test molecule that reduces the number of phage bound to the solid support by 50% is equal to the Kd for the interaction between the kinase and the test molecule. Typically, data are collected for twelve concentrations of test compound and, the resultant binding curve is fit to a non-cooperative binding isotherm to calculate Kd.
as §1

[3] = molecular target: T3, VEGFR2 (Homo sapiens, UniProt P35968); test: VEGFR2(DKIN) phage-display competitive binding assay
T3 construct: made in house; host or cells: T7 bacteriophage display
Description: as §2, §1

[4] = molecular target: T4, ABL1 (Homo sapiens, UniProt P00519); test: ABL1 phage-display competitive binding assay
T4 construct: made in house; host or cells: T7 bacteriophage display
Description: as §2, §1

[5] = system: MV4,11 cells; test: FLT3 assay using MV4,11 cells (cell proliferation, MTS); assay type: cell-based; settings: Homo sapiens, MV 4,11 cells, 0.5% serum, read-out: (MV 4,11) Cell Proliferation Assay with 0.5% Serum IC50 (nM) “CS0001”
Description: The ability of FLT3 kinase inhibitors to inhibit cellular proliferation was also examined. MV4:11 was a cell line derived from a patient with acute myelogenous leukemia. It expressed a mutant FLT3 protein that was constitutively active. […] Inhibition of FLT3 kinase activity prevented proliferation of these cells, and thus the MV4:11 cell line can be used a model for cellular activity of small molecule inhibitors of FLT3.
FLT3 assay using MV4,11 cells
MV4,11 cells were grown in an incubator @ 37° C. in 5% CO2 in Medium 2 (RPMI, 10% FBS, 4 mM glutamine, Penn/Strep). The cells were counted daily and the cell density was kept between 1e5 and 8e5 cells/ml.
Day One: Enough cells were harvested for experiments to be conducted in 50 ml conical tubes. The harvested cells were spun at 500 g for 5 min at 4° C., the supernatant was then aspirated and the cells were resuspended in the starting volume of 1×PBS. The cells were again spun at 500 g for 5 min at 4° C. and the supernatant again aspirated. […]
Day Two: The cells were counted and enough medium 3 was added to decrease density to 2e5 cells/ml. 50 ul (10,000 cells) was aliquoted into each well of a 96 well optical plate using multichannel pipetman. The compound plate was then set up by aliquoting 3 μl of negative control (DMSO) into column 1 of a 96 well 300 ul polypropylene plate, aliquoting 3 μl of positive control (10 mM AB20121) into column 12 of plate, and aliquoting 3 μl of appropriate compounds from serial dilutions into columns 2-11. To each well, 150 μl of Medium 3 was added and 50 μl of compound/medium mixture from compound plate into rows of optical plate in duplicate. The cells were then incubated at @ 37° C. in 5% CO2 for 3 days.
Day Five: MTS was thawed in a H2O bath. 20 μl of MTS was added to each well of optical plate and the cells were incubated @ 37° C. in 5% CO2 for 2 hours. The plate was then placed on a plate shaker for 30 seconds on high speed.

[6] = molecular target: T5, inactive form of KIT, which contains the autoinhibitory juxtamembrane domain (Homo sapiens, UniProt P10721); test: KIT (DKIN) Binding Assay; settings: inactive form of KIT with autoinhibitory juxtamembrane domain
T5 construct: made in house; host or cells: T7 bacteriophage display
Description: as §2, §1

T4 sequence (P00519 whole entry): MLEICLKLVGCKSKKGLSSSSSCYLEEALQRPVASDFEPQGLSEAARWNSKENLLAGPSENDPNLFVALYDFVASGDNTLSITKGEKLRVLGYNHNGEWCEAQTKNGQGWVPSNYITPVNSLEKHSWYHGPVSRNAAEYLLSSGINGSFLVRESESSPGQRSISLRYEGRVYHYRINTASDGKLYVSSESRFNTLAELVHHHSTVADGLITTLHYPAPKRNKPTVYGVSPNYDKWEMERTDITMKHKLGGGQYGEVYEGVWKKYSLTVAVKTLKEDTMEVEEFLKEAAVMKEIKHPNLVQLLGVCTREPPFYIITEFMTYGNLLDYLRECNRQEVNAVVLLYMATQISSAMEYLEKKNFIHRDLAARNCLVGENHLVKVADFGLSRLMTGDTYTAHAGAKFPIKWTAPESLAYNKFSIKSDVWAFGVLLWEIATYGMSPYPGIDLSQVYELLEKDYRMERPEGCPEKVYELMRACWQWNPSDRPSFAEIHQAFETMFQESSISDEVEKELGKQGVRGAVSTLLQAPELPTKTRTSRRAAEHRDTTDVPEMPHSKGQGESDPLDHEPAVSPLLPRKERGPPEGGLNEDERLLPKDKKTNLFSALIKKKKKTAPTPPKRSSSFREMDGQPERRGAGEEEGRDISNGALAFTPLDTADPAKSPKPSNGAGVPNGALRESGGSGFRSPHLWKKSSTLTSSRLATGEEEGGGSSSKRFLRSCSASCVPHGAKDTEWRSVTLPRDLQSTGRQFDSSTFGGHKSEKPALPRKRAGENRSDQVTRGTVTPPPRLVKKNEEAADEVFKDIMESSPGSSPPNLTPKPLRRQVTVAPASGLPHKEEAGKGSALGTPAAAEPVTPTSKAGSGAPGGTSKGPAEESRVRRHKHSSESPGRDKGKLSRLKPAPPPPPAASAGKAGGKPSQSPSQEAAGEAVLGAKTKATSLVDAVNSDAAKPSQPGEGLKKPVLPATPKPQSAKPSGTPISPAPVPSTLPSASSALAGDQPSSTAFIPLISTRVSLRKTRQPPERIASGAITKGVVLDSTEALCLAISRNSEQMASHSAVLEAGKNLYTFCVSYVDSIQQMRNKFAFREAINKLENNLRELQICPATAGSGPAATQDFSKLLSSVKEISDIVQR
T1 sequence (P09619 33-1106): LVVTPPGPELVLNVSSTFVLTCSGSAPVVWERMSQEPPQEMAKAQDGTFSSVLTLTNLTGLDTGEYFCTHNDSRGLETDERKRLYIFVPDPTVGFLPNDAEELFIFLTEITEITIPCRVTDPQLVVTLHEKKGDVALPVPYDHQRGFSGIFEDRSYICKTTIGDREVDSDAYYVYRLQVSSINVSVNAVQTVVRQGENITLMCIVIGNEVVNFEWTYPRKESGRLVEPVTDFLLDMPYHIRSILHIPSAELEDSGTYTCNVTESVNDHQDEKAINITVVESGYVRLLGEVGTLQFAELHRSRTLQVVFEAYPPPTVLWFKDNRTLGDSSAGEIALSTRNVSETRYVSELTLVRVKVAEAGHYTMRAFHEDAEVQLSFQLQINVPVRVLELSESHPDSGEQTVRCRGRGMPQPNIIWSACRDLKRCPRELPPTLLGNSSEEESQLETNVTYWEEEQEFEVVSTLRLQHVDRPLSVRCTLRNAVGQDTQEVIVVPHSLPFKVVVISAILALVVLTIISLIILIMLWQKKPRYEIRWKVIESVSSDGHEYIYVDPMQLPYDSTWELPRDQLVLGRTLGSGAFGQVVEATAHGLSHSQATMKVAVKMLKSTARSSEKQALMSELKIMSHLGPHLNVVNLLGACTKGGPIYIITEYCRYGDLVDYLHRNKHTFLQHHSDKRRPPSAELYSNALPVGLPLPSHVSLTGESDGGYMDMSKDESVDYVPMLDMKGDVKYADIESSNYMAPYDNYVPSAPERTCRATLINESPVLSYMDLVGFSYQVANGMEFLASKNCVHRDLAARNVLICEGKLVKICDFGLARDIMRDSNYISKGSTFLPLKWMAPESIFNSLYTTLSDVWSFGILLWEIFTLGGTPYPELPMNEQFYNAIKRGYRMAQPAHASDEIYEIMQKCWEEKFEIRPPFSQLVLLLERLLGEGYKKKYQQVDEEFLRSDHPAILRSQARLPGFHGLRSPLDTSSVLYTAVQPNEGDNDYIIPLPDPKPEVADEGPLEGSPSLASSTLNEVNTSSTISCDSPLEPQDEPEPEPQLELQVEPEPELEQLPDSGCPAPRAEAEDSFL
T3 sequence (P35968 20-1356): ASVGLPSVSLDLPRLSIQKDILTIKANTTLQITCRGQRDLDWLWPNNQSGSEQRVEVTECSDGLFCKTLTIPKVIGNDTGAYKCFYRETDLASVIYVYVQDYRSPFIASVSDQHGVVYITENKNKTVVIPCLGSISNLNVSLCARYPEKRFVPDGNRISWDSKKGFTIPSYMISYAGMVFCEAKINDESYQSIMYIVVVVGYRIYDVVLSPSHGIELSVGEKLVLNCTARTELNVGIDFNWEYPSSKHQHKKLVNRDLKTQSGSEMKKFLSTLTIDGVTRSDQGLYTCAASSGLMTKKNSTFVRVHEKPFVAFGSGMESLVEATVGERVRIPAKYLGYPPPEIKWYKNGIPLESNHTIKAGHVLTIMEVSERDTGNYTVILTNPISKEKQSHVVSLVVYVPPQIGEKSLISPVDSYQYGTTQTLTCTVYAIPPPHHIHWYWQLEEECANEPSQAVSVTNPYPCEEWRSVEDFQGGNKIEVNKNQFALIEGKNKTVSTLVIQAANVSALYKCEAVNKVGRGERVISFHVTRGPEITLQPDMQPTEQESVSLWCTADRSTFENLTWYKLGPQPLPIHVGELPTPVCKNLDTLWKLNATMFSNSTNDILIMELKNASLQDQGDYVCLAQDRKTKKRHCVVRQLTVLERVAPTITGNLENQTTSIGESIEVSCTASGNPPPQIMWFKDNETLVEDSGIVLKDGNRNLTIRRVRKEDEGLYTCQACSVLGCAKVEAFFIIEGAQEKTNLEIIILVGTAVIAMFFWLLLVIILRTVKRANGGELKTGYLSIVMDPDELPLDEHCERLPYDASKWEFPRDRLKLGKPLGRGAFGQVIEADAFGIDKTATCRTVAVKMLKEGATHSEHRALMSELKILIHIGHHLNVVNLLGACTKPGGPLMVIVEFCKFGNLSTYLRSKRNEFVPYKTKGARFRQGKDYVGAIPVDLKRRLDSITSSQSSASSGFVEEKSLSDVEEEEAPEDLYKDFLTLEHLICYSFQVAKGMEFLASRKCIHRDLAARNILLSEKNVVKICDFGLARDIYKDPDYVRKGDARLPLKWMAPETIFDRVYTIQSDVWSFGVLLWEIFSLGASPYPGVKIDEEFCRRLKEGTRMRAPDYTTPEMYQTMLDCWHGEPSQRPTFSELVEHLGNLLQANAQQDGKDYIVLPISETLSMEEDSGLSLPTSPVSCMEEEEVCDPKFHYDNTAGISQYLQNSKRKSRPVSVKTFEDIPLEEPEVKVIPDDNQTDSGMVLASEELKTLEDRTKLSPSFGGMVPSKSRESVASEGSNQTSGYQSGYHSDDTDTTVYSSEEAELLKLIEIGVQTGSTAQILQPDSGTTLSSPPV
T5 sequence (P10721 546-976 limits assumed): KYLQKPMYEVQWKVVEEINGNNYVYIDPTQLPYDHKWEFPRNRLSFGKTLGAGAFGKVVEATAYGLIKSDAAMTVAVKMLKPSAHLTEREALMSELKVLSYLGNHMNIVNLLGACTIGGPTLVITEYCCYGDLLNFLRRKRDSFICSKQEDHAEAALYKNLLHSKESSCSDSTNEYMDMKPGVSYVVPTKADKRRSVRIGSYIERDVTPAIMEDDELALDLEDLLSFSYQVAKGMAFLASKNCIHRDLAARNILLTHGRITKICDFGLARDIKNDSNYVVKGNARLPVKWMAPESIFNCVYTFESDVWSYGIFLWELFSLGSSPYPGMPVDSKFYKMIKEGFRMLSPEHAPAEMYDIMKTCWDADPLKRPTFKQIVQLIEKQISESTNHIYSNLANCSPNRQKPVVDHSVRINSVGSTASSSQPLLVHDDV

SMILES	Kd [1] [nM]	Kd [2] [nM]	other results
COc1ccc(-c2cc3c(Oc4cccc(OC)c4)ncnc3[nH]2)cc1 [Compound D7]	100 to 1000		
COc1ccc(-c2cc3c(Oc4cccc(C)c4)ncnc3[nH]2)cc1 [Compound D8]	1000 to 10000		
COc1ccc(-c2cc3c(Oc4ccc(Cl)cc4)ncnc3[nH]2)cc1 [Compound D11]	100 to 1000		
COc1ccc(-c2cc3c(Oc4ccc(F)cc4)ncnc3[nH]2)cc1 [Compound D13]	100 to 1000	100 to 1000	
COc1ccc(-c2cc3c(Oc4ccc(C)cc4)ncnc3[nH]2)cc1 [Compound D14]	1000 to 10000	1000 to 10000	
COc1cccc(-c2cc3c(Oc4ccc(Cl)cc4)ncnc3[nH]2)c1 [Compound D22]	100 to 1000		
COc1cccc(-c2cc3c(Oc4ccccc4)ncnc3[nH]2)c1 [Compound D24]	1000 to 10000	100 to 1000	
COc1cccc(Oc2ncnc3[nH]c(-c4ccc(O)cc4)cc23)c1 [Compound E4]			Kd [3]: 1000 to 10000 nM
Clc1ccccc1Sc1ncnc2[nH]ccc12 [Compound F1, 4-(2-Chloro-phenylsulfanyl)-7H-pyrrolo[2,3-d]pyrimidine]		> 10000	
COc1ccc(-c2cc3c(Sc4ccc(Cl)c(Cl)c4)ncnc3[nH]2)cc1 [Compound J3]			Kd [4]: < 100 nM
COc1ccc(-c2cc3c(Sc4cc(C)cc(C)c4)ncnc3[nH]2)cc1 [Compound J5]		> 10000	IC50 [5]: < 100 nM
COc1ccc(-c2cc3c(Sc4cccc(OC)c4)ncnc3[nH]2)cc1 [Compound J9]			Kd [4]: 100 to 1000 nM
COc1ccc(-c2cc3c(Sc4ccc(Cl)cc4)ncnc3[nH]2)cc1 [Compound J12]	1000 to 10000		
COc1ccc(-c2cc3c(Sc4ccc(C)cc4)ncnc3[nH]2)cc1 [Compound J14]	100 to 1000		Kd [3]: 100 to 1000 nM
COc1ccc(-c2cc3c(Sc4ccccc4)ncnc3[nH]2)cc1 [Compound J16]	100 to 1000	100 to 1000	IC50 [5]: < 100 nM; Kd [6]: 1 to 10 µM
Cc1ccc(-c2cc3c(Sc4cccc(F)c4)ncnc3[nH]2)cc1 [Compound J17]			Kd [4]: 1000 to 10000 nM
Cc1cc(C)cc(Sc2ncnc3[nH]c(-c4ccc(O)cc4)cc23)c1 [Compound J18]			Kd [4]: 1000 to 10000 nM

SMILES	Kd [1] [nM]	Kd [2] [nM]	other results
COc1cccc(Sc2ncnc3[nH]c(-c4cccc(OC)c4)cc23)c1 [Compound J26]			Kd [4]: 100 to 1000 nM
COc1ccc(-c2cc3c(Sc4ccc(F)c(Cl)c4)ncnc3[nH]2)cc1 [Compound J37]	100 to 1000	100 to 1000	IC50 [5]: 100 to 1000 nM
Clc1ccc(Sc2ncnc3c2[nH]c2ccccc23)cc1Cl [Compound K5]			IC50 [5]: > 10000 nM
COc1cccc(Sc2ncnc3[nH]c(-c4ccc(O)cc4)cc23)c1 [Compound L4]			Kd [4]: 100 to 1000 nM; Kd [3]: 100 to 1000 nM
Cc1cccc(Sc2ncnc3[nH]c(-c4ccc(O)cc4)cc23)c1 [Compound L5]			Kd [3]: > 10000 nM
Oc1ccc(-c2cc3c(Sc4ccc(Cl)cc4)ncnc3[nH]2)cc1 [Compound L7]			Kd [3]: 1000 to 10000 nM
Oc1ccc(-c2cc3c(Sc4ccc(F)cc4)ncnc3[nH]2)cc1 [Compound L8]			Kd [3]: > 10000 nM
Cc1ccc(Sc2ncnc3[nH]c(-c4ccc(O)cc4)cc23)cc1 [Compound L9]	1000 to 10000	100 to 1000	Kd [4]: 100 to 1000 nM; Kd [3]: 100 to 1000 nM
Oc1ccc(-c2cc3c(Sc4ccccc4)ncnc3[nH]2)cc1 [Compound L10]			Kd [3]: > 10000 nM
COc1ccc(-c2cc3c(Sc4ccccc4)ncnc3n2C)cc1 [Compound O7]		100 to 1000	
CCOc1ccc(-c2cc3c(Sc4ccccc4)ncnc3n2CC)cc1 [Compound O8]		100 to 1000	
CC(C)Oc1ccc(-c2cc3c(Sc4ccccc4)ncnc3n2C(C)C)cc1 [Compound O9]		100 to 1000	
COc1ccc(-c2cc3c(Sc4ccccc4)ncnc3n2C(C)C)cc1 [Compound O10]		100 to 1000	
COc1ccc(-c2cc3c(Sc4ccc(C)cc4)ncnc3n2C)cc1 [Compound O11]		100 to 1000	
CCOc1ccc(-c2cc3c(Sc4ccc(C)cc4)ncnc3n2CC)cc1 [Compound O12]		100 to 1000	
Cc1ccc(Sc2ncnc3c2cc(-c2ccc(OC(C)C)cc2)n3C(C)C)cc1 [Compound O13]		1000 to 10000	
COc1ccc(-c2cc3c(Sc4ccc(C)cc4)ncnc3n2C(C)C)cc1 [Compound O14]		1000 to 10000	
